Calls of active or inactive are those of the source. No cut-off for these calls is given here.
How the values were obtained:
[1] = tested on: Panel NCI-60 (60 carcinoma cell lines); assay: Cytotoxicity against human NCI60 cells by SRB assay; type: functional, cell-based
BT-474 [2] = assay: Cytotoxicity against human BT-474 cells assessed as cell growth inhibition by MTT assay; type: functional, cell-based
BT-474 [3] = assay: Induction of apoptosis in human BT-474 cells assessed as reduced number of viable cells at 0.25 to 1 uM by phase-contrast microscopy; type: functional, cell-based; conditions: dose 0.25-1 µM
BT-474 [4] = assay: Induction of apoptosis in human BT-474 cells assessed as […] at 0.25 to 1 uM by phase-contrast microscopy; type: functional, cell-based; conditions: dose 0.25-1 µM
BT-474 [5] = assay: Induction of apoptosis in human BT-474 cells assessed as cell shrinkage at 0.25 to 1 uM by phase-contrast microscopy; type: functional, cell-based; conditions: dose 0.25-1 µM
BT-474 [6] = assay: Induction of apoptosis in human BT-474 cells assessed as cellular morphological changes at 0.25 to 1 uM incubated for 24 hrs by AO/EB staining assay; type: functional, cell-based; conditions: dose 0.25-1 µM
BT-474 [7] = assay: Induction of apoptosis in human BT-474 cells assessed as horseshoe-shaped nuclei by measuring bright clue colour at 0.25 to 1 uM incubated for 24 hrs by DAPI staining based fluorescence microscope assay; type: functional, cell-based; conditions: dose 0.25-1 µM
BT-474 [8] = assay: Induction of apoptosis in human BT-474 cells assessed as nuclear shrinkage by measuring bright clue colour at 0.25 to 1 uM incubated for 24 hrs by DAPI staining based fluorescence microscope assay; type: functional, cell-based; conditions: dose 0.25-1 µM
BT-474 [9] = assay: Induction of apoptosis in human BT-474 cells assessed as fragmented nucleus by measuring bright clue colour at 0.25 to 1 uM incubated for 24 hrs by DAPI staining based fluorescence microscope assay; type: functional, cell-based; conditions: dose 0.25-1 µM
BT-474 [10] = assay: Induction of apoptosis in human BT-474 cells assessed as pyknotic and chromatin condensation by measuring bright clue colour at 0.25 to 1 uM incubated for 24 hrs by DAPI staining based fluorescence microscope assay; type: functional, cell-based; conditions: dose 0.25-1 µM
BT-474 [11] = assay: Inhibition of colony formation in human BT-474 cells by clonogenic assay; type: functional, cell-based
BT-474 [12] = assay: Induction of apoptosis in human BT-474 cells assessed as viable cells at 0.5 uM incubated for 24 hrs by annexin-V/FITC-PI staining assay (reference value: 88.49%); type: functional; conditions: read-out: Activity
BT-474 [13] = assay: Induction of apoptosis in human BT-474 cells assessed as early apoptotic cells at 0.5 uM incubated for 24 hrs by annexin-V/FITC-PI staining assay (reference value: 9.44%); type: functional
BT-474 [14] = assay: Induction of apoptosis in human BT-474 cells assessed as late apoptotic cells at 0.5 uM incubated for 24 hrs by annexin-V/FITC-PI staining assay (reference value: 1.83%); type: functional
BT-474 [15] = assay: Induction of apoptosis in human BT-474 cells assessed as necrotic cells at 0.5 uM incubated for 24 hrs by annexin-V/FITC-PI staining assay (reference value: 0.24%); type: functional
BT-474 [16] = assay: Induction of apoptosis in human BT-474 cells assessed as viable cells at 1 uM incubated for 24 hrs by annexin-V/FITC-PI staining assay (reference value: 88.49%); type: functional; conditions: read-out: Activity
BT-474 [17] = assay: Induction of apoptosis in human BT-474 cells assessed as early apoptotic cells at 1 uM incubated for 24 hrs by annexin-V/FITC-PI staining assay (reference value: 9.44%); type: functional
BT-474 [18] = assay: Induction of apoptosis in human BT-474 cells assessed as late apoptotic cells at 1 uM incubated for 24 hrs by annexin-V/FITC-PI staining assay (reference value: 1.83%); type: functional
BT-474 [19] = assay: Induction of apoptosis in human BT-474 cells assessed as necrotic cells at 1 uM incubated for 24 hrs by annexin-V/FITC-PI staining assay (reference value: 0.24%); type: functional
BT-474 [20] = assay: Induction of mitochondrial membrane potential loss in human BT-474 cells assessed as polarised cells at 0.25 uM incubated for 24 hrs by […] staining based assay (reference value: 93.95%); type: functional
BT-474 [21] = assay: Induction of mitochondrial membrane potential loss in human BT-474 cells assessed as polarised cells at 0.5 uM incubated for 24 hrs by […] staining based assay (reference value: 93.95%); type: functional
BT-474 [22] = assay: Induction of mitochondrial membrane potential loss in human BT-474 cells assessed as polarised cells at 1 uM incubated for 24 hrs by […] staining based assay (reference value: 93.95%); type: functional
BT-474 [23] = assay: Induction of mitochondrial membrane potential loss in human BT-474 cells assessed as depolarised cells at 0.25 uM incubated for 24 hrs by […] staining based assay (reference value: 4.18%); type: functional
BT-474 [24] = assay: Induction of mitochondrial membrane potential loss in human BT-474 cells assessed as depolarised cells at 0.5 uM incubated for 24 hrs by […] staining based assay (reference value: 4.18%); type: functional
BT-474 [25] = assay: Induction of mitochondrial membrane potential loss in human BT-474 cells assessed as depolarised cells at 1 uM incubated for 24 hrs by […] staining based assay (reference value: 4.18%); type: functional
K562 [26] = assay: Growth inhibition of human K562 cells; type: functional
RPMI-8226 [27] = assay: Growth inhibition of human RPMI-8226 cells; type: functional
SR [28] = assay: Growth inhibition of human SR cells; type: functional
NCI-H460 [29] = assay: Growth inhibition of human NCI-H460 cells; type: functional
HCT-116 [30] = assay: Growth inhibition of human HCT-116 cells; type: functional
HT-29 [31] = assay: Growth inhibition of human HT-29 cells; type: functional
KM12 [32] = assay: Growth inhibition of human KM12 cells; type: functional
SNB-75 [33] = assay: Growth inhibition of human SNB75 cells; type: functional
LOX IMVI [34] = assay: Growth inhibition of human LOX IMVI cells; type: functional
MDA-MB-435 [35] = assay: Growth inhibition of human MDA-MB-435 cells; type: functional
MCF7 [36] = assay: Growth inhibition of human MCF7 cells; type: functional
BT-474 [37] = assay: Induction of ROS production in human BT-474 cells assessed as increase in intracellular ROS level incubated for 24 hrs by DCF-DA staining based assay; type: functional, cell-based; conditions: dose 0.25-1 µM
SR [38] = assay: Growth of human SR cells relative to control
K562 [39] = assay: Growth of human K562 cells relative to control
KM12 [40] = assay: Growth of human KM12 cells relative to control
MCF7 [41] = assay: Growth of human MCF7 cells relative to control
HT-29 [42] = assay: Growth of human HT-29 cells relative to control
SNB-75 [43] = assay: Growth of human SNB75 cells relative to control
HCT-116 [44] = assay: Growth of human HCT-116 cells relative to control
NCI-H460 [45] = assay: Growth of human NCI-H460 cells relative to control
LOX IMVI [46] = assay: Growth of human LOX IMVI cells relative to control
RPMI-8226 [47] = assay: Growth of human RPMI-8226 cells relative to control
MDA-MB-435 [48] = assay: Growth of human MDA-MB-435 cells relative to control
[49] = read-out: LC50 (the source's name)

O=C(O)CNc1ncnc2onc(-c3ccccc3)c12
Activity [1]: Active

Clc1cccc(Nc2ncnc3onc(-c4ccccc4)c23)c1
Activity [1]: Active

c1ccc(COc2ccc(Nc3ncnc4onc(-c5ccccc5)c34)cc2)cc1
Activity [1]: Active

O=c1cc(Cc2ccc(Oc3ccc(Nc4ncnc5onc(-c6ccccc6)c45)cc3)cc2)c2ccccc2o1
Activity [1]: Active

c1ccc(-c2noc3ncnc(Nc4ccc(Oc5ccc6ccccc6c5)cc4)c23)cc1
Activity [1]: Active

Clc1cccc(COc2ccc(Nc3ncnc4onc(-c5ccccc5)c34)cc2)c1
Activity [1]: Active

Fc1ccc(Oc2ccc(Nc3ncnc4onc(-c5ccccc5)c34)cc2)cc1
Activity [1]: Active

Clc1ccc(Oc2ccc(Nc3ncnc4onc(-c5ccccc5)c34)cc2)c(Cl)c1
Activity [1]: Active

COc1cccc(COc2ccc(Nc3ncnc4onc(-c5ccccc5)c34)cc2)c1
Activity [1]: Active

Fc1ccc(COc2ccc(Nc3ncnc4onc(-c5ccccc5)c34)cc2)cc1
Activity [1]: Active

c1ccc(Nc2ncnc3onc(-c4ccccc4)c23)cc1
Activity [1]: Active

c1ccc(-c2noc3ncnc(Nc4ccc(Oc5ccccc5-c5ccnc6ccccc56)cc4)c23)cc1
Activity [1]: Active

Cc1cc(C)cc(Oc2ccc(Nc3ncnc4onc(-c5ccccc5)c34)cc2)c1
Activity [1]: Active

COc1ccc(Nc2ncnc3onc(-c4ccccc4)c23)cc1
Activity [1]: Active

Cc1ccc(COc2ccc(Nc3ncnc4onc(-c5ccccc5)c34)cc2)cc1
Activity [1]: Active

Brc1ccc(Oc2ccc(Nc3ncnc4onc(-c5ccccc5)c34)cc2)cc1
Activity [1]: Active

c1ccc(-c2noc3ncnc(Nc4ccc(N5CCOCC5)cc4)c23)cc1
Activity [1]: Active

Clc1ccc(COc2ccc(Nc3ncnc4onc(-c5ccccc5)c34)cc2)cc1
Activity [1]: Active

Brc1ccc(COc2ccc(Nc3ncnc4onc(-c5ccccc5)c34)cc2)cc1
Activity [1]: Active

c1ccc(-c2noc3ncnc(Nc4ccc(Oc5cccc6ccccc56)cc4)c23)cc1
Activity [1]: Active

COc1ccc(COc2ccc(Nc3ncnc4onc(-c5ccccc5)c34)cc2)cc1
Activity [1]: Active

CCOC(=O)c1ccc(Oc2ccc(Nc3ncnc4onc(-c5ccccc5)c34)cc2)cc1
Activity [1]: Active

Fc1cccc(COc2ccc(Nc3ncnc4onc(-c5ccccc5)c34)cc2)c1
IC50 (BT-474 [2]): 640 nM | Activity (BT-474 [3]): Active | Activity (BT-474 [4]): Active | Activity (BT-474 [5]): Active | Activity (BT-474 [6]): Active | Activity (BT-474 [7]): Active | Activity (BT-474 [8]): Active | Activity (BT-474 [9]): Active | Activity (BT-474 [10]): Active | Activity (BT-474 [11]): Dose-Dependent Effect | viability at 0.5 µM (BT-474 [12]): 64.9% | Activity (BT-474 [13]): 27.1% | Activity (BT-474 [14]): 6.9% | Activity (BT-474 [15]): 1.06% | viability at 1 µM (BT-474 [16]): 63.3% | Activity (BT-474 [17]): 27.93% | Activity (BT-474 [18]): 7.19% | Activity (BT-474 [19]): 1.55% | Activity (BT-474 [20]): 92.79% | Activity (BT-474 [21]): 78.84% | Activity (BT-474 [22]): 75.08% | Activity (BT-474 [23]): 5.5% | Activity (BT-474 [24]): 16.12% | Activity (BT-474 [25]): 18.83% | GI50 (K562 [26]): 95 nM | TGI (K562 [26]): > 100000 nM | CC50 (K562 [26]; [49]): > 100000 nM | GI50 (RPMI-8226 [27]): 58 nM | TGI (RPMI-8226 [27]): > 100000 nM | CC50 (RPMI-8226 [27]; [49]): > 100000 nM | GI50 (SR [28]): 67 nM | TGI (SR [28]): > 100000 nM | CC50 (SR [28]; [49]): > 100000 nM | GI50 (NCI-H460 [29]): 50 nM | TGI (NCI-H460 [29]): 28400 nM | CC50 (NCI-H460 [29]; [49]): > 100000 nM | GI50 (HCT-116 [30]): 58 nM | TGI (HCT-116 [30]): > 100000 nM | CC50 (HCT-116 [30]; [49]): > 100000 nM | GI50 (HT-29 [31]): 53 nM | TGI (HT-29 [31]): 11600 nM | CC50 (HT-29 [31]; [49]): > 100000 nM | GI50 (KM12 [32]): 80 nM | TGI (KM12 [32]): 14800 nM | CC50 (KM12 [32]; [49]): > 100000 nM | GI50 (SNB-75 [33]): 26 nM | TGI (SNB-75 [33]): 386 nM | CC50 (SNB-75 [33]; [49]): > 100000 nM | GI50 (LOX IMVI [34]): 949 nM | TGI (LOX IMVI [34]): > 100000 nM | CC50 (LOX IMVI [34]; [49]): > 100000 nM | GI50 (MDA-MB-435 [35]): 32 nM | GI50 (MCF7 [36]): 37 nM | TGI (MCF7 [36]): > 100000 nM | CC50 (MCF7 [36]; [49]): > 100000 nM | Activity [1]: Active | Activity (BT-474 [37]): Dose-Dependent Effect | growth, % of control (SR [38]): 26.06% | growth, % of control (K562 [39]): 12.08% | growth, % of control (KM12 [40]): 9.57% | growth, % of control (MCF7 [41]): 14.05% | growth, % of control (HT-29 [42]): 3.86% | growth, % of control (SNB-75 [43]): -34.93% | growth, % of control (HCT-116 [44]): 8.15% | growth, % of control (NCI-H460 [45]): 2.61% | growth, % of control (LOX IMVI [46]): 23.07% | growth, % of control (RPMI-8226 [47]): 12.49% | growth, % of control (MDA-MB-435 [48]): -54.67%

Clc1ccccc1Oc1ccc(Nc2ncnc3onc(-c4ccccc4)c23)cc1
Activity [1]: Active

FC(F)(F)Oc1ccc(Oc2ccc(Nc3ncnc4onc(-c5ccccc5)c34)cc2)cc1
Activity [1]: Active

Fc1ccccc1Nc1ncnc2onc(-c3ccccc3)c12
Activity [1]: Active

Clc1ccc(COc2ccc(Nc3ncnc4onc(-c5ccccc5)c34)cc2)c(Cl)c1
Activity [1]: Active

c1ccc(Oc2ccc(Nc3ncnc4onc(-c5ccccc5)c34)cc2)cc1
Activity [1]: Active

— ChEMBL document CHEMBL4823299, “Design, synthesis, and biological evaluation of N-(4-substituted)-3-phenylisoxazolo[5,4-d]pyrimidin-4-amine derivatives as apoptosis-inducing cytotoxic agents” (Bioorg Med Chem Lett, 2021)
